Laboratory results as given in patent US8377993B2, “Insecticidal compound” (Dainihon Jochugiku Co., Ltd., priority 2010, dated 2013).
“Also recorded” adds a separate entry of the source.

Key:
[1] = tested on: adults of Blattella germanica; conditions: on the basis of the LD50 value by a microdropping method; cited from earlier work
[2] = tested on: adults of house flies; conditions: cited from earlier work
[3] = tested on: Female house mosquitoes; experiment: Petri dish insecticidal efficacy test (KT100 and mortality after 24 hours); format: in vivo
Source text: The fractionated component E2-4-2 which is a mixture of compound A and compound B was subjected to the insecticidal efficacy test based on the test conditions shown in Table 3, wherein the concentration of the fractionated component E2-4-2, natural pyrethrin, and dl-d-T80-allethrin was further diluted for the test.

## C=CCC1=C(C)C(OC(=O)C2C(C=C(C)C)C2(C)C)CC1=O (racemic) [dl-d-T80-allethrin]
[1]
  dose required for killing the adults of Blattella germanica relative to the dose required for killing the adults of house mosquitoes: about 103 times
[2]; on the basis of the LD50 value by a microdropping method
  dose required for killing the adults of house flies relative to the dose required for killing the adults of house mosquitoes: about 17 times
[2]; rounded statement
  dose required for killing the adult house flies relative to the dose required for killing northern house mosquitoes: about 20 times
[3]; Table 4, 0.001 mg/6.15 cm^2
  KT100 value: 50 min
  The mortality after 24 hours: 83%
[3]; Table 4, 0.01 mg/6.15 cm^2
  KT100 value: <5 min
  The mortality after 24 hours: 100%
[3]; Table 4, 0.1 mg/6.15 cm^2
  The mortality after 24 hours: 100%
[3]; Table 4, 0.1 mg/6.15 cm^2, time to 100% knockdown
  KT100 value: <5 min
[3]; Table 5, 10^−1 mg/6.15 cm^2
  KT100 value: <5 min
  The mortality after 24 hours: 100%
[3]; Table 5, 10^−2 mg/6.15 cm^2
  KT100 value: <5 min
  The mortality after 24 hours: 100%
[3]; Table 5, 10^−3 mg/6.15 cm^2
  KT100 value: 50 min
  The mortality after 24 hours: 83%
[3]; Table 5, 10^−4 mg/6.15 cm^2
  KT100 value: >120 min
  The mortality after 24 hours: 17%
[3]; Table 7, 10^−5 mg/6.15 cm^2
  KT100 value: cannot achieved; also recorded: Survive
  The mortality after 24 hours: 0%
